Test results reported in patent US11992552B2, “Geometric configurations for gastric residence systems” (Lyndra Therapeutics, Inc., priority 2015, dated 2024).

How the values were obtained:
[1] = Shear-lap joint adhesion test (ASTM D3163) of enteric materials; format: physicochemical; settings: plasticizer with Eudragit L100-55 (70%/30% enteric material/plasticizer), acetone as solvent, PCL sheets
Excerpt: The influence of solvent (acetone, isopropyl alcohol, and ethyl acetate) and plasticizer (Eudragit NM, Plastoid B, Triethyl Citrate, and Triacetin) on the adhesion force of enteric materials were quantified using ASTM D3163, a standardized shear-lap joint mechanical test. The top figure A illustrates a side view of the experimental setup. Two 2-mm thick PCL (Mn 55 k) polymer sheets are adhered to an enteric material, Eudragit L100-55 (methyl methacrylate) combined with a plasticizer (in a 70%/30% enteric material/plasticizer ratio), using a solvent and pressure. The polymer sheets are then loaded into a tensile testing machine and pulled apart. The force/stress that causes the linker-polymer bond to break is recorded.

[2] = Behaviour over seven days in simulated gastric fluid; format: physicochemical

CC(=O)OCC(COC(C)=O)OC(C)=O [Triacetin]
adhesion force [1]: greatest adhesion force
release of plasticizer from a polymer formulation [2]: releases from a polymer formulation in a time-dependent manner over seven days
